Assays:
human MAT2A enzyme = human MAT2A enzyme (Homo sapiens (Human), UniProt P31153); experiment: In vitro enzymatic inhibition activity assay on MAT2A (PiColorLock phosphate detection); assay type: biochemical; conditions: purified human MAT2A 10 nM, ATP 50 μM, L-methionine 100 μM, 6 h at 23° C.; read-out: MAT2A inhibitory activity IC50
How it was run: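 IC50 came from an 8-point, 10-fold compound series that reduced phosphate release, measured by absorbance at 630 nm. Reactions ran 6 h at 23 °C with 10 nM human MAT2A, 50 μM ATP and 100 μM L-methionine in pH 7.5 Tris buffer containing Mg2+.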

HCT116 MTAP−/− cells = experiment: Inhibition of proliferation of HCT116 MTAP-/- cells (Cell-Titer Glo, 7 days); assay type: cell-based; conditions: Homo sapiens, HCT-116, 168 h (7 days) incubation, read-out: HCT116 MTAP−/− antiproliferative activity IC50
Description: The MTAP deficient human colorectal cancer cell line HCT116 MTAP−/− was constructed using CRJSPR Cas9 technology and cultured in DMEM medium supplemented with 10% fetal bovine serum (FBS, purchased from Gibco) and 1% penicillin/streptomycin (P/S, purchased from Thermo Fisher Scientific) at 37° C. with 5% CO2. HCT116 MTAP−/− cells were plated in 96 well plates (#3917, purchased from CORNING) at a concentration of 200 cells/195 μL/well. After 24 h, the compounds were diluted in a 3-fold gradient starting at 10 mM with 100% DMSO (for a total of 10 concentrations), then 4 μL of each concentration was added to 96 μL of serum-free DMEM medium for dilution. 5 μL of diluted compound at each concentration was added to the plated cell suspension and the compound was incubated with the cells for 168 h (7 days) in a cell culture incubator. The medium was then removed and 25 μL of Cell-Titer Glo® (G7570, purchased from Promega) reagent was added. Chemiluminescence values were read on a BMG and data were processed using GraphPad Prism software to calculate IC50 values for inhibition of cell proliferation by the compounds.

[1] = In vivo pharmacokinetic study in CD-1 mice; conditions: male, mouse, single oral gavage dose of 10 mg/kg, plasma
Description: In vivo pharmacokinetic study in CD-1 mice
Twenty-four healthy adult male mice from Beijing Vital River Laboratory Animal Technology Co., Ltd. were used in the study.
CD-1 mice were administered with a single oral gavage dose of 10 mg/kg in a volume of 10 mL/kg at a concentration of 1 mg/mL.
The test article in this project is generally suspended in 0.5% hydroxypropylmethyl cellulose, 0.1% Tween 80 (W/V/V) aqueous solution at the concentration of 1 mg/mL.
Animals dosed by gavage were fasted overnight before the experiment from 16 h before dosing to 4 h after dosing. Blood was collected at 0.25, 0.5, 1, 2, 4, 6, 8, and 24 h after administration successively. The animals were lightly anesthetized with isoflurane. About 0.2 mL of whole blood was collected from the orbital venous plexus using a glass blood collection tube and placed in a sodium heparin anticoagulant tube. The sample was centrifuged at 5200 rpm for 5 min at 4° C. The plasma was transferred to a centrifuge tube and stored at −80° C. until analysis.
Analysis of plasma samples Test compounds and internal standards (warfarin or propranolol) were extracted from mouse plasma using an acetonitrile protein precipitation method and the extracts were analyzed by LC/MS/MS. The measured plasma concentration-time data of individual animals were analyzed using the non-compartmental model of WinNonlin (version 5.2.1, Pharsight) software to obtain the corresponding pharmacokinetic parameters: maximum (peak) plasma drug concentration Cmax; Time to peak Tmax; Half-life T1/2 and area under the plasma concentration-time curve extrapolated to infinite time AUC0-inf.

human MAT2A enzyme, sequence (P31153 whole entry): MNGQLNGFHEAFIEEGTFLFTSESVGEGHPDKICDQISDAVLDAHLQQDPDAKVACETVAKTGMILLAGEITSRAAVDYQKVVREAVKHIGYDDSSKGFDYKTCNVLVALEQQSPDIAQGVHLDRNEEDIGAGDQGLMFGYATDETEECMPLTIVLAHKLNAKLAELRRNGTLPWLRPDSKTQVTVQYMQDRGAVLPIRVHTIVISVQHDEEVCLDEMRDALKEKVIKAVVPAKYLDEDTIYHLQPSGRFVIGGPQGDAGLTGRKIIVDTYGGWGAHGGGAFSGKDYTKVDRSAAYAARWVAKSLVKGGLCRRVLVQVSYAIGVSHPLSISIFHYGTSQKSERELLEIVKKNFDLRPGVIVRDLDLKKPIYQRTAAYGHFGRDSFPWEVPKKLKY

IC50 (human MAT2A enzyme) | IC50 (HCT116 MTAP−/− cells) | AUC [1] | Cmax [1] | Tmax [1] | half-life [1] | Structure (SMILES)
2.37 nM | 85.2 nM | – | – | – | – | COC(=O)c1c(N)c2ccc(C(F)(F)F)cc2n(-c2ccc(CO)cc2)c1=O [Example 86, methyl 4-amino-2-oxo-1-(4-(hydroxymethyl)phenyl)-7-(trifluoromethyl)-1,2-dihydroquinoline-3-carboxylate]
0.83 nM | 87.2 nM | – | – | – | – | COC(=O)c1c(N)c2ccc(Br)cc2n(-c2ccc3c(c2)OCO3)c1=O [Example 92, methyl 4-amino-1-(benzo[d](1,3)dioxol-5-yl)-7-bromo-2-oxo-1,2-dihydroquinoline-3-carboxylate]
2.17 nM | 50 nM | – | – | – | – | COC(=O)c1c(N)c2ccc(C(F)(F)F)cc2n(-c2ccc(C(C)O)cc2)c1=O (stereo not shown) [Example 122, methyl 4-amino-1-(4-(1-hydroxyethyl)phenyl)-2-oxo-7-(trifluoromethyl)-1,2-dihydroquinoline-3-carboxylate]
0.78 nM | 81.5 nM | 24.1 µg·h/mL | 2320 ng/mL | 1.67 h | 8.44 h | COC(=O)c1c(N)c2ccc(Br)cc2n(-c2ccc(N)cc2)c1=O [Example 147, methyl 4-amino-1-(4-aminophenyl)-7-bromo-2-oxo-1,2-dihydroquinoline-3-carboxylate]
1.18 nM | 30.9 nM | – | – | – | – | COC(=O)c1c(N)c2ccc(C(F)(F)F)nc2n(-c2ccc(Cl)cc2)c1=O [Example 173, methyl 4-amino-1-(4-chlorophenyl)-2-oxo-7-(trifluoromethyl)-1,2-dihydro-1,8-naphthyridine-3-carboxylate]
1.63 nM | 23.4 nM | – | – | – | – | COC(=O)c1c(N)c2ccc(Br)cc2n(-c2ccc(C(C)O)cc2)c1=O (stereo not shown) [Example 200, methyl 4-amino-7-bromo-1-(4-(1-hydroxyethyl)phenyl)-2-oxo-1,2-dihydro quinoline-3-carboxylate]
1.24 nM | – | 591 µg·h/mL | 37500 ng/mL | 4 h | 9.25 h | COC(=O)c1c(N)c2ccc(Br)cc2n(-c2ccc(N)cc2C)c1=O [Example 238, methyl 4-amino-1-(4-amino-2-methylphenyl)-7-bromo-2-oxo-1,2-dihydroquinoline-3-carboxylate]
0.14 nM | 14.2 nM | – | – | – | – | COC(=O)c1c(N)c2ccc(I)cc2n(-c2ccc(N)cc2)c1=O [Example 252, methyl 4-amino-1-(4-aminophenyl)-7-iodo-2-oxo-1,2-dihydro quinoline-3-carboxylate]
0.94 nM | 47.3 nM | – | – | – | – | COC(=O)c1c(N)c2ccc(Br)nc2n(-c2ccc(Cl)cc2)c1=O [Example 265, methyl 4-amino-7-bromo-1-(4-chlorophenyl)-2-oxo-1,2-dihydro-1,8-naphthyridine-3-carboxylate]
2.37 nM | 32.7 nM | – | – | – | – | COC(=O)c1c(N)c2ccc(Br)nc2n(-c2ccc(C(C)O)cc2)c1=O (stereo not shown) [Example 266, methyl 4-amino-1-(4-(1-hydroxyethyl)phenyl)-7-bromo-2-oxo-1,2-dihydro-1,8-naphthyridine-3-carboxylate]
0.78 nM | 16.6 nM | – | – | – | – | COC(=O)c1c(N)c2ccc(C(F)(F)F)cc2n(-c2ccc([C@@H](C)O)cc2)c1=O [Example 272, methyl 4-amino-1-(4-(1-(R)-hydroxyethyl)phenyl)-2-oxo-7-(trifluoromethyl)-1,2-dihydroquinoline-3-carboxylate]
1.44 nM | 2.1 nM | – | – | – | – | COC(=O)c1c(N)c2ccc(Br)cc2n(-c2ccc([C@@H](C)O)cc2)c1=O [Example 340, methyl 4-amino-7-bromo-1-(4-(1-(R)-hydroxyethyl)phenyl)-2-oxo-1,2-dihydroquinoline-3-carboxylate]
1.2 nM | 1.5 nM | – | – | – | – | COC(=O)c1c(N)c2ccc(OC(F)(F)F)cc2n(-c2ccc([C@@H](C)O)cc2)c1=O [Example 378, methyl 4-amino-1-(4-((1R)-1-hydroxyethyl)phenyl)-2-oxo-7-(trifluoromethoxy)-1,2-dihydroquinoline-3-carboxylate]
1.41 nM | – | 468 µg·h/mL | 18600 ng/mL | 4 h | 16.5 h | COC(=O)c1c(N)c2ccc(OC(F)(F)F)cc2n(-c2ccc(N)cc2)c1=O [Example 379, methyl 4-amino-1-(4-aminophenyl)-2-oxo-7-(trifluoromethoxy)-1,2-dihydroquinoline-3-carboxylate]

The remaining lines, values behind:

Structure (SMILES) | IC50 (human MAT2A enzyme) | IC50 (HCT116 MTAP−/− cells) | AUC [1] | Cmax [1] | Tmax [1] | half-life [1]
COC(=O)c1c(N)c2ccc(Br)cc2n(-c2cccc3cnccc23)c1=O [Example 154, methyl 4-amino-7-bromo-1-(isoquinolin-5-yl)-2-oxo-1,2-dihydroquinoline-3-carboxylate] | 3 nM | 35.1 nM | – | – | – | –
COC(=O)c1c(N)c2ccc(C(F)(F)F)nc2n(-c2cccc3cnccc23)c1=O [Example 174, methyl 4-amino-1-(isoquinolin-5-yl)-2-oxo-7-(trifluoromethyl)-1,2-dihydro-1,8-naphthyridine-3-carboxylate] | 5.12 nM | 79 nM | 24.5 µg·h/mL | 9540 ng/mL | 0.5 h | 3.08 h
COC(=O)c1c(N)c2ccc(C(F)(F)F)cc2n(-c2ccc(C(C)O)nc2)c1=O (stereo not shown) [Example 175, methyl 4-amino-1-(6-(1-hydroxyethyl)pyridin-3-yl)-2-oxo-7-(trifluoromethyl)-1,2-dihydroquinoline-3-carboxylate] | 6.25 nM | 53.5 nM | – | – | – | –
COC(=O)c1c(N)c2ccc(Br)cc2n(-c2ccc(Cl)c3cnccc23)c1=O [Example 176, methyl amino-1-(8-chloroisoquinolin-5-yl)-7-bromo-2-oxo-1,2-dihydroquinoline-3-carboxylate] | 2.74 nM | 39.2 nM | – | – | – | –
COC(=O)c1c(N)c2ccc(C(F)(F)F)nc2n(-c2ccc(Cl)nc2)c1=O [Example 203, methyl 4-amino-1-(6-chloropyridin-3-yl)-2-oxo-7-(trifluoromethyl)-1,2-dihydro-1,8-naphthyridine-3-carboxylate] | 1.26 nM | 25 nM | – | – | – | –
COC(=O)c1c(N)c2ccc(C(F)(F)F)nc2n(-c2ccc(C)nc2)c1=O [Example 207, methyl 4-amino-1-(6-methylpyridin-3-yl)-2-oxo-7-(trifluoromethyl)-1,2-dihydro-1,8-naphthyridine-3-carboxylate] | 2.17 nM | 53.2 nM | – | – | – | –
COC(=O)c1c(N)c2ccc(C(F)(F)F)nc2n(-c2ccc(OC)nc2)c1=O [Example 208, methyl 4-amino-1-(6-methoxypyridin-3-yl)-2-oxo-7-(trifluoromethyl)-1,2-dihydro-1,8-naphthyridine-3-carboxylate] | 4.09 nM | 70.9 nM | – | – | – | –
COC(=O)c1c(N)c2ccc(Br)nc2n(-c2cccc3cnccc23)c1=O [Example 221, methyl 4-amino-7-bromo-1-(isoquinolin-5-yl)-2-oxo-1,2-dihydro-1,8-naphthyridine-3-carboxylate] | 2.71 nM | 41.4 nM | – | – | – | –
COC(=O)c1c(N)c2ccc(Br)nc2n(-c2cccc3c(Cl)nccc23)c1=O [Example 240, methyl 4-amino-1-(1-chloroisoquinolin-5-yl)-7-bromo-2-oxo-1,2-dihydro-1,8-naphthyridine-3-carboxylate] | 1.72 nM | 61.2 nM | – | – | – | –
COC(=O)c1c(N)c2ccc(Br)nc2n(-c2ccc3ccncc3c2)c1=O [Example 244, methyl 4-amino-7-bromo-1-(isoquinolin-7-yl)-2-oxo-1,2-dihydro-1,8-naphthyridine-3-carboxylate] | 0.86 nM | 46.4 nM | – | – | – | –
COC(=O)c1c(N)c2ccc(C(F)(F)F)nc2n(-c2ccc(N)cc2Cl)c1=O [Example 325, methyl 4-amino-1-(4-amino-2-chlorophenyl)-2-oxo-7-trifluoromethyl-1,2-dihydro-1,8-naphthyridine-3-carboxylate] | 2.29 nM | – | 452 µg·h/mL | 52800 ng/mL | 1 h | 6.81 h

Reference: patent US20250221979A1, “NOVEL HETEROCYCLIC COMPOUND” (SHOUYAO HOLDINGS (BEIJING) CO., LTD., priority 2022, published 2025)
